pEC50: −log10 of the molar value.
Key:
Format in all cases: cell-based
[1] = target: T1, human somatostatin receptor subtype 2 (Homo sapiens, UniProt P30874); experiment: Functional assay for SSTR2 agonists (HTRF cAMP); conditions: CHO-K1 cells stably expressing human SST2; NKH477-stimulated cAMP; 20 min at 37 C; read-out: hSST2 cAMP Avg EC50
T1 construct: expressed in transfected cells
In short: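 CHO-K1 cells stably expressing human SSTR2 treated with compound (typically 0-10,000 nM final) for 20 min at 37 °C. Lysate cAMP measured by HTRF (665/620 nm ratio), converted via standard curve; EC50 from cAMP vs concentration.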

[2] = target: T2, SST2 (Homo sapiens, UniProt P30874); experiment: PathHunter CHO-K1 SST2 Internalization Assay; conditions: PathHunter CHO-K1 SST2 cells; 90 min at 37 C; luminescence; read-out: Internalization EC50
T2 construct: host or cells: PathHunter CHO-K1 SST2 cells
Procedure: NDCs of the present invention were assessed in vitro using the human PathHunter CHO-K1 SST2 β-arrestin2 and PathHunter CHO-K1 SST2 Internalization Assays from DiscoverX. The CHO-K cells were seeded in 20 μLs of cell culture medium in a white-walled 384 well tissue culture-compatible plate at a density of 2500 cells/well. After a 48-hour incubation, cells were treated with 5 μLs of a 1:3 serially diluted SST2 NDC prepared at 5× concentration with a final top compound concentration of 10 uM for 90 min at 37 C and in 5% CO2. 11 dilutions were tested as well as one treatment that was compound free. After incubation, the media containing treatments were discarded and 20 μL of a working solution of Beta-Glo from Promega Beta-Go Assay System was added to each well. The plate was then incubated for 60 min at room temperature in the dark. Luminescence was measured using a Tecan plate reader. IC50 curves were generated using the nonlinear regression analysis (four-parameters) with GraphPad Prism 9. Results were the average of duplicates and are corrected for background.

[3] = system: NCI-H524 human small cell lung cancer cells; experiment: H524 assay: inhibition of cell proliferation (CellTiter Glo); conditions: 2 h treatment, washout, additional 70 h incubation
Procedure: NDCs of the present invention were assessed in an in vitro assay evaluating the inhibition of cell proliferation. NCI-H524 (ATCC) human small cell lung cancer cells were plated in 96-well V-bottom plates (Costar) at a concentration of 5,000 cells/well. 24 h later, the cells were treated for 2 h with a NDC. NDC starting dose was 1 uM and two-fold serial dilutions were done for a total of 11 points. After 2 h of treatment, cells were spun down, and the drug-containing media was removed, and fresh complete media was added and used to resuspend the cells, which were spun again. After removal of the media, the cells were resuspended in complete medium and incubated for an additional 70 h. Cell proliferation was assessed using the CellTiter Glo Assay according to the standard protocol (Promega). Luminescence was measured using a TECAN plate reader. Percent proliferation inhibition was calculated using the following formula: % inhibition=(Luminescence Control−Luminescence Treatment)/Luminescence Control*100. IC50 curves were generated using the nonlinear regression analysis (four-parameter) with GraphPad Prism 9.

T1 sequence (P30874 whole entry): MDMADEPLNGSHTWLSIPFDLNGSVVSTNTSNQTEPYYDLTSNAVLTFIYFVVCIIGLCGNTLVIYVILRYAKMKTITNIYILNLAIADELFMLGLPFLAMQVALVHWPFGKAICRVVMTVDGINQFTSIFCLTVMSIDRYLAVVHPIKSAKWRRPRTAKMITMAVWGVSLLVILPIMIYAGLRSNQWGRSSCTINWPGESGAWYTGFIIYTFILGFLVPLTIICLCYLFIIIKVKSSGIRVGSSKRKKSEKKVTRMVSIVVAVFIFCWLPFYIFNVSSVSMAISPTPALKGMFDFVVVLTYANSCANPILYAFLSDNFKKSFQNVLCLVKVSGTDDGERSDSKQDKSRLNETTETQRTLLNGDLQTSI
T2 sequence (P30874 whole entry): as above

SMILES	pEC50 [1]	pEC50 [2]	pEC50 [3]
CC[C@H](C)[C@@H]([C@@H](CC(=O)N1CCC[C@H]1[C@H](OC)[C@@H](C)C(=O)N[C@H](C)[C@@H](O)c1ccccc1)OC)N(C)C(=O)[C@@H](NC(=O)[C@H](C(C)C)N(C)C(=O)OCc1ccc(NC(=O)[C@H](CCCNC(N)=O)NC(=O)[C@@H](NC(=O)CCOCCC(=O)NCCNc2ncc(-c3cc(C)cc(F)c3)c(N3CCC(N)CC3)c2-c2nc3ccc(Cl)cc3[nH]2)C(C)C)c(OCC(=O)O)c1)C(C)C [Compound 18]	10.01	8.19	8.11
CC[C@H](C)[C@@H]([C@@H](CC(=O)N1CCC[C@H]1[C@H](OC)[C@@H](C)C(=O)N[C@H](C)[C@@H](O)c1ccccc1)OC)N(C)C(=O)[C@@H](NC(=O)[C@H](C(C)C)N(C)C(=O)OCc1ccc(NC(=O)[C@H](CCCNC(N)=O)NC(=O)[C@@H](NC(=O)CCOCCOCCOCCOCCC(=O)NCCNc2ncc(-c3cc(C)cc(F)c3)c(N3CCC(N)CC3)c2-c2nc3ccc(Cl)cc3[nH]2)C(C)C)c(OCC(=O)O)c1)C(C)C [Compound 19]	10.15	8.09	7.55
CC[C@H](C)[C@@H]([C@@H](CC(=O)N1CCC[C@H]1[C@H](OC)[C@@H](C)C(=O)N[C@H](C)[C@@H](O)c1ccccc1)OC)N(C)C(=O)[C@@H](NC(=O)[C@H](C(C)C)N(C)C(=O)OCc1ccc(NC(=O)[C@H](CCCNC(N)=O)NC(=O)[C@@H](NC(=O)CN(C)C(=O)CCOCCC(=O)NCCNc2ncc(-c3cc(C)cc(F)c3)c(N3CCC(N)CC3)c2-c2nc3ccc(Cl)cc3[nH]2)C(C)C)c(OCC(N)=O)c1)C(C)C [Compound 20]	10.03	8.15	7.54
CC[C@H](C)[C@@H]([C@@H](CC(=O)N1CCC[C@H]1[C@H](OC)[C@@H](C)C(=O)N[C@H](C)[C@@H](O)c1ccccc1)OC)N(C)C(=O)[C@@H](NC(=O)[C@H](C(C)C)N(C)C(=O)OCc1ccc(NC(=O)[C@H](CCCNC(N)=O)NC(=O)[C@@H](NC(=O)CCOCCC(=O)N(C)CC(=O)NCCNc2ncc(-c3cc(C)cc(F)c3)c(N3CCC(N)CC3)c2-c2nc3ccc(Cl)cc3[nH]2)C(C)C)c(OCC(N)=O)c1)C(C)C [Compound 21]	10.02	8.12	7.89
CC[C@H](C)[C@@H]([C@@H](CC(=O)N1CCC[C@H]1[C@H](OC)[C@@H](C)C(=O)N[C@H](C)[C@@H](O)c1ccccc1)OC)N(C)C(=O)[C@@H](NC(=O)[C@H](C(C)C)N(C)C(=O)OCc1ccc(NC(=O)[C@H](CCCNC(N)=O)NC(=O)[C@@H](NC(=O)C[C@@H](N)C(=O)NCCOCCC(=O)NCCNc2ncc(-c3cc(C)cc(F)c3)c(N3CCC(N)CC3)c2-c2nc3ccc(Cl)cc3[nH]2)C(C)C)c(OCC(=O)O)c1)C(C)C [Compound 22]	9.77	7.77	7.66
CC[C@H](C)[C@@H]([C@@H](CC(=O)N1CCC[C@H]1[C@H](OC)[C@@H](C)C(=O)N[C@H](C)[C@@H](O)c1ccccc1)OC)N(C)C(=O)[C@@H](NC(=O)[C@H](C(C)C)N(C)C(=O)OCc1ccc(NC(=O)[C@H](CCCNC(N)=O)NC(=O)[C@@H](NC(=O)C[C@@H](N)C(=O)NCCOCCOCCOCCOCCC(=O)NCCNc2ncc(-c3cc(C)cc(F)c3)c(N3CCC(N)CC3)c2-c2nc3ccc(Cl)cc3[nH]2)C(C)C)c(OCC(=O)O)c1)C(C)C [Compound 23]	9.54	7.70	7.49
CC[C@H](C)[C@@H]([C@@H](CC(=O)N1CCC[C@H]1[C@H](OC)[C@@H](C)C(=O)N[C@H](C)[C@@H](O)c1ccccc1)OC)N(C)C(=O)[C@@H](NC(=O)[C@H](C(C)C)N(C)C(=O)OCc1ccc(NC(=O)[C@H](CCCNC(N)=O)NC(=O)[C@@H](NC(=O)CCOCCOCCOCCOCCC(=O)N(C)CC(=O)NCCNc2ncc(-c3cc(C)cc(F)c3)c(N3CCC(N)CC3)c2-c2nc3ccc(Cl)cc3[nH]2)C(C)C)c(OCC(=O)O)c1)C(C)C [Compound 24]	9.70	7.70	7.00
CC[C@H](C)[C@@H]([C@@H](CC(=O)N1CCC[C@H]1[C@H](OC)[C@@H](C)C(=O)N[C@H](C)[C@@H](O)c1ccccc1)OC)N(C)C(=O)[C@@H](NC(=O)[C@H](C(C)C)N(C)C(=O)OCc1ccc(NC(=O)[C@H](CCCNC(N)=O)NC(=O)[C@@H](NC(=O)[C@@H](CCC(=O)O)NC(=O)CCOCCC(=O)NCCNc2ncc(-c3cc(C)cc(F)c3)c(N3CCC(N)CC3)c2-c2nc3ccc(Cl)cc3[nH]2)C(C)C)cc1C(=O)NCCN)C(C)C [Compound 25]	9.54	8.19	7.39
CC[C@H](C)[C@@H]([C@@H](CC(=O)N1CCC[C@H]1[C@H](OC)[C@@H](C)C(=O)N[C@H](C)[C@@H](O)c1ccccc1)OC)N(C)C(=O)[C@@H](NC(=O)[C@H](C(C)C)N(C)C(=O)OCc1ccc(NC(=O)[C@H](CCCNC(N)=O)NC(=O)[C@@H](NC(=O)[C@H](CCC(N)=O)NC(=O)CCOCCOCCOCCOCCC(=O)NCCNc2ncc(-c3cc(C)cc(F)c3)c(N3CCC(N)CC3)c2-c2nc3ccc(Cl)cc3[nH]2)C(C)C)c(OCCN)c1)C(C)C [Compound 26]	9.52	7.92	7.77
CC[C@H](C)[C@@H]([C@@H](CC(=O)N1CCC[C@H]1[C@H](OC)[C@@H](C)C(=O)N[C@H](C)[C@@H](O)c1ccccc1)OC)N(C)C(=O)[C@@H](NC(=O)[C@H](C(C)C)N(C)C(=O)OCc1ccc(NC(=O)[C@H](C)NC(=O)[C@@H](NC(=O)[C@H](CS(=O)(=O)O)NC(=O)CCOCCC(=O)NCCNc2ncc(-c3cc(C)cc(F)c3)c(N3CCC(N)CC3)c2-c2nc3ccc(Cl)cc3[nH]2)C(C)C)cc1C(=O)NCCN)C(C)C [Compound 27]	9.92	8.14	6.72
CC[C@H](C)[C@@H]([C@@H](CC(=O)N1CCC[C@H]1[C@H](OC)[C@@H](C)C(=O)N[C@H](C)[C@@H](O)c1ccccc1)OC)N(C)C(=O)[C@@H](NC(=O)[C@H](C(C)C)N(C)C(=O)OCc1ccc(NC(=O)[C@H](CCCNC(N)=O)NC(=O)[C@@H](NC(=O)[C@@H](CS(=O)(=O)O)NC(=O)CCOCCC(=O)NCCNc2ncc(-c3cc(C)cc(F)c3)c(N3CCC(N)CC3)c2-c2nc3ccc(Cl)cc3[nH]2)C(C)C)cc1C(=O)NCCN)C(C)C [Compound 28]	10.13	7.96	6.92
CC[C@H](C)[C@@H]([C@@H](CC(=O)N1CCC[C@H]1[C@H](OC)[C@@H](C)C(=O)N[C@H](C)[C@@H](O)c1ccccc1)OC)N(C)C(=O)[C@@H](NC(=O)[C@H](C(C)C)N(C)C(=O)OCc1ccc(NC(=O)[C@H](CCCNC(N)=O)NC(=O)[C@@H](NC(=O)[C@@H](CS(=O)(=O)O)NC(=O)CCOCCC(=O)NCCNc2ncc(-c3cc(C)cc(F)c3)c(N3CCC(N)CC3)c2-c2nc3ccc(Cl)cc3[nH]2)C(C)C)cc1C(=O)NCCN)C(C)C [Compound 29]	10.12	8.07	8.59
CC[C@H](C)[C@@H]([C@@H](CC(=O)N1CCC[C@H]1[C@H](OC)[C@@H](C)C(=O)N[C@H](C)[C@@H](O)c1ccccc1)OC)N(C)C(=O)[C@@H](NC(=O)[C@H](C(C)C)N(C)C(=O)OCc1ccc(NC(=O)[C@H](C)NC(=O)[C@@H](NC(=O)CCOCCC(=O)NCCNc2ncc(-c3cc(C)cc(F)c3)c(N3CCC(N)CC3)c2-c2nc3ccc(Cl)cc3[nH]2)C(C)C)c(O[C@@H]2O[C@H](C(=O)NCC(=O)O)[C@@H](O)[C@H](O)[C@H]2O)c1)C(C)C [Compound 33]	9.82	8.60	8.15
